Results reported in paper PMC12355554, “Development of novel mitochondrial pyruvate carrier inhibitors for breast cancer treatment” (The Journal of Biological Chemistry, 2025).
Like-named read-outs stand apart in the source and are kept apart here.

How the values were obtained:
[1] = biological target: T1, mitochondrial pyruvate carrier (MPC) (Mus musculus, UniProt P63030+Q9D023); assay: Seahorse XFe96 Pyr-driven respiration in rPFO-permeabilized 4T1 cells; format: cell-based, murine; settings: for effect on Pyr-driven respiration: Pyr/Mal, candidate compounds 1 μM
T1 construct: host or cells: 4T1 murine breast cancer cells, rPFO-permeabilized
T1 sequence (P63030 1-109): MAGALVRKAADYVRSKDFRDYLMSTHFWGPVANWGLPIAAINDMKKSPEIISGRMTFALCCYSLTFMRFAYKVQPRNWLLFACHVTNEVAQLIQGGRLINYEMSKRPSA
T1 sequence (Q9D023 1-127): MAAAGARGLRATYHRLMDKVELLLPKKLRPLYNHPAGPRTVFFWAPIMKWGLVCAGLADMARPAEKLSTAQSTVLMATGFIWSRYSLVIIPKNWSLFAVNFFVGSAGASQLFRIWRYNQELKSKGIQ
Description: After validating the ability of rPFO to permeabilize 4T1 cells without damaging mitochondria, we sought to investigate the ability of candidate compounds to inhibit Pyr-driven respiration in these cells (Fig. 1, D–G). In this regard, 4T1 cells were seeded in Seahorse XFe96 well plates and were incubated to reach confluence (∼18–24 h) in growth media (+serum). Growth media were then aspirated, and cells were washed with MAS buffer to remove serum and endogenous metabolic substrates. Serum- and substrate-starved cells were then incubated for equilibration in MAS buffer in a non-CO2 incubator. Inhibitors, rPFO, and substrate milieus were prepared in MAS buffer to be injected in succession to allow for real-time observation of the effects of compound-treated cultures on oxygen consumption rates (OCRs) when compared with vehicle (dimethyl sulfoxide [DMSO])-treated cells. Equilibrated intact cells were allowed to establish basal respiratory rates, followed by the injection of candidate compounds C1 to C4 at varying dose-titrated concentrations, respectively, and acute decreases in OCR were observed (Fig. 1, D–G). Compound exposure was performed in intact cells to avoid influence of rPFO on acute cellular targets. Cells were then exposed to rPFO, followed by the carbonyl cyanide-p-trifluoromethoxyphenylhydrazone (FCCP)–stimulated Pyr substrate milieu, which consisted of Pyr, malate (Mal), and dichloroacetate (DCA) to fuel uninhibited Pyr respiratory flux and maximal respiration. Mal and DCA were included to allow for continuous TCA cycle function without acetyl CoA feedback–mediated inhibition (Mal) or Pyr dehydrogenase–regulated inhibition (DCA) of Pyr uptake. Here, we observed a dose-dependent inhibition of Pyr-driven respiration in cells treated with the candidate compounds, allowing for logarithmic dose–response curves to be generated, and 50% inhibitory concentrations (IC50) to be calculated (Fig. 1, D–G). Finally, complex I and […] were injected to halt respiration and end the assay. […] In this regard, the fluoro-aminocarboxycoumarin derivative C4 has been designated as the lead candidate for further investigation.
(§1) Permeabilized cell assays were performed using rPFO as described previously. 4T1 cells were seeded (20,000 cells/well) onto Seahorse XFe96 well plates and incubated overnight in growth media at 37 °C and 5% CO2 for adherence. On the day of the assay, growth media were aspirated and replaced with MAS buffer (70 mM sucrose, 220 mM mannitol, 10 mM potassium phosphate monobasic, 5 mM magnesium chloride, 2 mM Hepes, and 1 mM EGTA) after 3X rinse of growth media to remove serum and endogenous metabolic substrates, and incubated at 37 °C in a non-CO2 incubator. Respective inhibitor and substrate milieu's were prepared in MAS buffer for port injections A–D at 8X, 9X, 10X, and 11X the target cell concentrations to account for intrinsic dilution factor of in situ injections of each port. […] Final substrate concentrations for specific tests were as follows: (5 mM Pyr , 0.5 mM Mal, 2 mM DCA; 10 mM glutamate, 0.5 mM Mal, 2 mM DCA; 10 mM succinate, 2 μM rotenone; 20 mM methyl Pyr, 5 mM Pyr, 0.5 mM Mal, and 2 mM DCA). ATP rate assays and mitochondrial stress tests were performed according to the manufacturer's (Agilent) instructions.

[2] = test system: succinate-driven respiration in 4T1 cells; assay: Seahorse succinate-driven respiration in permeabilized 4T1 cells; format: cell-based, murine; settings: candidate compounds 1 μM
Description: (§2) Although our initial experiments and previous literature illustrate the ability of the candidate compounds to inhibit Pyr-driven respiration, we sought to investigate the ability of candidate compounds to inhibit respiration fueled by other metabolic substrates, glutamate and succinate (Fig. 2). Glutamate, similar to Pyr oxidation, results in NADH equivalents that fuel complex I-mediated respiration, and succinate metabolism offers FADH2 for electrons in complex II-driven respiratory processes. […] To further validate the mode of action of the candidate compounds, a series of similar Seahorse experiments were employed (Fig. 2, A–C). In these experiments, 4T1 cells were first permeabilized and were then offered metabolic substrates Pyr (Pyr/Mal; Fig. 2A), glutamate (Glu/Mal, Fig. 2B), or succinate (Fig. 2C), and the resulting OCR was observed. As described previously, Mal and DCA were included in the substrate milieu of glutamate respiration experiments. […] To validate that inhibition of Pyr respiration is due to mitochondrial Pyr uptake and not other Pyr-processing enzymes (i.e., Pyr dehydrogenase), a parallel experiment using methyl pyruvate (MePyr) was employed (Fig. 2, E and F). MePyr is permeable to the mitochondrial membranes, where in the matrix, mitochondrial esterase hydrolysis activity provides Pyr.
as §1

[3] = test system: glutamate-driven respiration in 4T1 cells; assay: Seahorse glutamate-driven respiration in permeabilized 4T1 cells; format: cell-based, murine; settings: Glu/Mal, candidate compounds 1 μM
Description: as §2, §1

[4] = biological target: T1, mitochondrial pyruvate carrier (MPC); assay: Michaelis-Menten kinetics of mitochondrial pyruvate uptake (Seahorse OCR); format: cell-based, murine; settings: permeabilized 4T1 cells; 10 nM inhibitor
Description: To further investigate the type of inhibition, we employed Michaelis–Menten experiments in modified Seahorse XFe96–based assays similar to described previously, and based on the model that Pyr uptake is directly coupled to NADH oxidation and oxygen consumption (Fig. 3A). In these experiments, 4T1 cells were permeabilized and were then administered varying concentrations of Pyr in the presence or the absence of 10 nM C3 or C4, respectively (Fig. 3, B–F). A rise in OCR indicated Pyr-driven respiration, where subsequent addition of FCCP stimulated maximal respiration, and substrate-dependent increases in OCR were observed and normalized to protein content (Fig. 3, B–F). In this regard, Michaelis–Menten curves were generated using the FCCP-stimulated OCR in C3- or C4-treated and -untreated cells where Michaelis–Menten parameters of maximal velocity (Vmax) and half-maximal substrate concentrations (Km) were calculated (Fig. 3, E–G). Michaelis–Menten assumptions include direct and irreversible substrate and carrier interaction that results in the OCRs and is analogous to standard enzymatic Michaelis–Menten models (Fig. 3A). […] Thus, C3 decreased the Vmax and increased the Km, not consistent with competitive inhibition where high substrate concentrations titrate out the inhibitor to reach intrinsic Vmax values. However, potential covalent bonding of inhibitor may limit the ability of Pyr to displace C3 from the active site, resulting in the observed “mixed” mode of inhibition.

[5] = biological target: T1, mitochondrial pyruvate carrier (MPC); assay: Methyl pyruvate reversal of inhibited Pyr-driven respiration; format: cell-based, murine; settings: permeabilized 4T1 cells; 20 mM methyl Pyr
Description: as §2
Permeabilized cell assays were performed using rPFO as described previously. […]

[6] = Intrinsic CL in human liver microsomes; format: in vitro ADME; settings: human, liver microsomes; exceeding the experimental endpoints
[7] = read-out: IC50, inhibition of Pyr-driven respiration
[8] = average ± SEM, read-out: IC50, inhibition of Pyr-driven respiration (Fig. 1G, unit inferred)

Row | Compound | IC50 [1, 7] [µM] | effect on succinate-driven respiration [2] | effect on glutamate-driven respiration [3] | effect on Pyr-driven respiration [1] | IC50 [1, 8] [µM] | Vmax of Pyr-driven FCCP-stimulated OCR [4] [pmol/min] | mode of inhibition [4] | reversal of Pyr-driven respiration effects by methyl pyruvate [5] | half-life [6] [h]
1 | O=C(O)c1cc2ccc(N(c3ccc(F)cc3)c3ccc(F)cc3)cc2oc1=O [C1, 7-(bis(4-fluorophenyl)amino)-2-oxo-2H-chromene-3-carboxylic acid] | > 1 | – | – | – | – | – | – | – | –
2 | CN(c1ccc(F)cc1)c1ccc2cc(C(=O)O)c(=O)oc2c1 [C2, 7-((4-fluorophenyl)(methyl)amino)-2-oxo-2H-chromene-3-carboxylic acid] | 0.147 | without substantial effects | without substantial effects | specifically inhibits | 0.148 ± 0.0089 | – | – | – | –
3 | CN(Cc1ccccc1)c1ccc2cc(C(=O)O)c(=O)oc2c1 [C3, 7-(benzyl(methyl)amino)-2-oxo-2H-chromene-3-carboxylic acid] | 0.018 | without substantial effects | without substantial effects | specifically inhibits | 0.0183 ± 0.0008 | 10.8 | mixed | completely reversed | > 2
4 | CN(Cc1ccc(F)cc1)c1ccc2cc(C(=O)O)c(=O)oc2c1 [C4, 7-((4-fluorobenzyl)(methyl)amino)-2-oxo-2H-chromene-3-carboxylic acid] | 0.016 | without substantial effects | without substantial effects | specifically inhibits | 0.0166 ± 0.0048 | – | competitive | – | –
